Source: patent publication US20090054411A1, “4-ANILINOQUINOLINE-3-CARBOXAMIDES AS CSF-1R KINASE INHIBITORS” (AstraZeneca AB, priority 2006, published 2009)

Molecular target: T1, CSF-1R (Homo sapiens, UniProt P07333)
T1 construct: His-tagged kinase domain of CSF-1R (i.e., amino acids 568-912, GeneBank ID NM_005211); His; made in house; host or cells: baculovirus-infected SF+Express insect cells
T1 sequence (P07333 568-912): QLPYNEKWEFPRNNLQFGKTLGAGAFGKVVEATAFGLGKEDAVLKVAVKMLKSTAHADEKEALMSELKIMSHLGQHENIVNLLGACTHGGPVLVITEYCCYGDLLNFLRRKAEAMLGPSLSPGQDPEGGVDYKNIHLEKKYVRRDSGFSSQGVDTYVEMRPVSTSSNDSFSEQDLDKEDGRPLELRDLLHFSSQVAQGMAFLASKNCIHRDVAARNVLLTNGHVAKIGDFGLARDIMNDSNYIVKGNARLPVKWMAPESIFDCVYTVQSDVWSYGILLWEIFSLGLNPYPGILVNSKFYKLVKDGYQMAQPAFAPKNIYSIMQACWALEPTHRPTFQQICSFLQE
Assay: CSF-1R In Vitro AlphaScreen Assay
Type: biochemical
Conditions: purified His-tagged kinase domain of CSF-1R, pEY substrate, 90 μM ATP
Description: Activity of purified CSF-1R was determined in vitro using an Amplified Luminescent Proximity Homogeneous Assay (ALPHA)(Perkin Elmer), which measures phosphorylation of the CSF-1R substrate, biotinylated poly-glutamine-tyrosine peptide (pEY-HTRF CisBio 61GT0BLD), as described below.
The phosphorylation of the CSF-1R substrate in the presence and absence of the compound of interest was determined. […] Plates were incubated at 25° C. for 18 hours in the dark. Phosphorylated substrate was detected by an EnVision plate reader (Perkin Elmer) 680 nm excitation, 520-620 nm emission. Data was graphed and IC50s calculated using Excel Fit (Microsoft).

| IC50 [nM] | Structure (SMILES) |
| --- | --- |
| 23 | COc1cc2c(Nc3cccc(Cl)c3Cl)c(C(N)=O)cnc2cc1N1CCN(C)CC1 [Example 9] |
| 154 | NC(=O)c1cnc2cc(F)c(N3CCOCC3)cc2c1Nc1ccc(F)cc1F [Example 18] |
